The record followed here is US9465288B2, “Sulfonium salt compound, method for producing the same, and photoacid generator” (DSP GOKYO FOOD & CHEMICAL CO., LTD., priority 2012, dated 2016).

Series [1] in a line: Solubility: amount of PGMEA necessary for dissolving 100 mg of test compound. The class given is physicochemical. The following applies: for PGMEA (amount necessary for dissolving the test compound): 100 mg test compound, 20±5° C., 30 minutes with 30-second strong shaking every 5 minutes, 300 μL or less desirable. On the procedure: The thus obtained sulfonium salt compounds were used as test compounds. PGMEA was added to 100 mg of each test compound, and the amount of PGMEA necessary for dissolving the test compound therein after the elapse of 30 minutes by repeating 30-second strong shaking at 20±5° C. every 5 minutes was measured. Here, “dissolving” means to reach the state where no insoluble matter can be observed by visual inspection, specifically, means that the resultant solution is clear, or a mixture in an arbitrary ratio becomes transparent. […] In Table 1 below, sulfonium salt compounds with an amount of PGMEA of 300 μL or less were evaluated as having desirable properties.

A short description of series [2]: Ultraviolet-visible absorption spectrum, molecular extinction coefficient at 365 nm. In kind it is physicochemical. The following applies: 1×10^−4 mol/L acetonitrile solution; reference range 50 to 2000. On the procedure:
A 1×10^−4 mol/L acetonitrile solution of each test compound was prepared, and the molecular extinction coefficient at 365 nm in the ultraviolet-visible absorption spectrum was measured using an ultraviolet-visible spectrophotometer (UV-2400PC, manufactured by SHIMADZU CORPORATION). […] Considering that light would be transmitted to a deep portion of a thick film, the reference range of the molecular extinction coefficient at 365 nm (i-line) was set to 50 to 2000. The sulfonium compounds falling within this range were evaluated as having desirable properties.

With `CCCCOc1ccc2c(OCCCC)ccc([S+](CCCC)CCCC)c2c1.O=S(=O)([N-]S(=O)(=O)C(F)(F)F)C(F)(F)F` [Ex. 10, 1-(4,7-di-n-butoxynaphthyl)di-n-butylsulfonium di(1,1,1-trifluoromethanesulfone)imide], in series [1], the “PGMEA (amount necessary for dissolving the test compound)” value came to 100 µL. Besides, in series [2], the “Molecular extinction coefficient (365 nm)” value is 940.
The matching figures for `CCCCOc1ccc2ccc(OCCCC)c([S+](c3ccccc3)c3ccccc3)c2c1.O=S(=O)([N-]S(=O)(=O)C(F)(F)C(F)(F)C(F)(F)C(F)(F)F)C(F)(F)C(F)(F)C(F)(F)C(F)(F)F` [C. Ex. 5, 1-(2,7-di-n-butoxynaphthyl)diphenylsulfonium di(1,1,2,2,3,3,4,4,4-nonafluorobutanesulfone)imide, reference compound]: 100 µL and 2930.
The matching figures for `O=S(=O)([N-]S(=O)(=O)C(F)(F)C(F)(F)C(F)(F)C(F)(F)F)C(F)(F)C(F)(F)C(F)(F)C(F)(F)F.c1ccc([S+](c2ccccc2)c2ccccc2)cc1` [C. Ex. 4, triphenylsulfonium di(1,1,2,2,3,3,4,4,4-nonafluorobutanesulfone)imide, reference compound]: 100 µL and 0.
`CCCCOc1ccc2c(OCCCC)ccc([S+](CCCC)CCCC)c2c1.O=S(=O)([N-]S(=O)(=O)C(F)(F)C(F)(F)C(F)(F)C(F)(F)F)C(F)(F)C(F)(F)C(F)(F)C(F)(F)F` [Ex. 3, 1-(4,7-di-n-butoxynaphthyl)di-n-butylsulfonium di(1,1,2,2,3,3,4,4,4-nonafluorobutanesulfone)imide]: the “PGMEA (amount necessary for dissolving the test compound)” value in series [1] came to 100 µL. For the same compound, the “Molecular extinction coefficient (365 nm)” value in series [2] stood at 810.
The matching figures for `O=S1(=O)[N-]S(=O)(=O)C(F)(F)C(F)(F)C1(F)F.c1ccc([S+](c2ccccc2)c2ccccc2)cc1` [C. Ex. 1, triphenylsulfonium 1,1,2,2,3,3-hexafluorotrimethylene imide, reference compound]: 300 µL and 0.
For `CCCCOc1ccc2ccc(OCCCC)c([S+](CCCC)CCCC)c2c1.O=S(=O)([N-]S(=O)(=O)C(F)(F)F)C(F)(F)F` [Ex. 9, 1-(2,7-di-n-butoxynaphthyl)di-n-butylsulfonium di(1,1,1-trifluoromethanesulfone)imide], in that order: 200 µL and 560.
Take `CCCCOc1ccc2ccc(OCCCC)c([S+](CCCC)CCCC)c2c1.O=S(=O)([N-]S(=O)(=O)C(F)(F)C(F)(F)C(F)(F)C(F)(F)F)C(F)(F)C(F)(F)C(F)(F)C(F)(F)F` [Ex. 1, 1-(2,7-di-n-butoxynaphthyl)di-n-butylsulfonium di(1,1,2,2,3,3,4,4,4-nonafluorobutanesulfone)imide]: the “PGMEA (amount necessary for dissolving the test compound)” value in series [1] is 100 µL. The “Molecular extinction coefficient (365 nm)” value in series [2] stood at 580.
As for `CCCCOc1ccc2ccc(OCCCC)c([S+](CCCC)CCCC)c2c1.F[P-](F)(F)(F)(F)F` [C. Ex. 3, 1-(2,7-di-n-butoxynaphthyl)di-n-butylsulfonium hexafluorophosphate, reference compound], the “PGMEA (amount necessary for dissolving the test compound)” value in series [1] turned out to be 1900 µL. The “Solubility in PGMEA (in words)” value in series [1] (PGMEA) was “exceptionally low solubility in PGMEA”. For the same compound, the “Molecular extinction coefficient (365 nm)” value in series [2] was 490.
As for `CCCCOc1ccc2ccc(OCCCC)c([S+](CCCC)CCCC)c2c1.O=S(=O)([O-])C(F)(F)C(F)(F)C(F)(F)C(F)(F)F` [Ex. 6, 1-(2,7-di-n-butoxynaphthyl)di-n-butylsulfonium 1,1,2,2,3,3,4,4,4-nonafluorobutanesulfonate], in series [1], the “PGMEA (amount necessary for dissolving the test compound)” value was 100 µL. In series [2], the “Molecular extinction coefficient (365 nm)” value stood at 690.
For the compound `CCCCOc1ccc([S+](CCCC)CCCC)c2c(OCCCC)cccc12.O=S(=O)([N-]S(=O)(=O)C(F)(F)C(F)(F)C(F)(F)C(F)(F)F)C(F)(F)C(F)(F)C(F)(F)C(F)(F)F` [Ex. 8, 1-(4,8-di-n-butoxynaphthyl)di-n-butylsulfonium di(1,1,2,2,3,3,4,4,4-nonafluorobutanesulfone)imide], the “PGMEA (amount necessary for dissolving the test compound)” value in series [1] came to 100 µL. Moreover, the “Molecular extinction coefficient (365 nm)” value in series [2] came out at 620.
For `CCCCOc1ccc2ccc(OCCCC)c([S+](C(C)C)C(C)C)c2c1.O=S(=O)([N-]S(=O)(=O)C(F)(F)C(F)(F)C(F)(F)C(F)(F)F)C(F)(F)C(F)(F)C(F)(F)C(F)(F)F` [Ex. 13, 1-(2,7-di-n-butoxynaphthyl)diisopropyl sulfonium di(1,1,2,2,3,3,4,4,4-nonafluorobutanesulfone)imide], in series [1], the “PGMEA (amount necessary for dissolving the test compound)” value is 100 µL. For the same compound, in series [2], the “Molecular extinction coefficient (365 nm)” value amounted to 1030.
On to `CCCCCCCCOc1ccc2ccc(OCCCCCCCC)c([S+](C)C)c2c1.O=S(=O)([N-]S(=O)(=O)C(F)(F)F)C(F)(F)F` [Ex. 11, 1-(2,7-di-n-octoxynaphthyl)dimethylsulfonium di(1,1,1-trifluoromethanesulfone)imide], for which, in series [1], the “PGMEA (amount necessary for dissolving the test compound)” value was 100 µL. The “Molecular extinction coefficient (365 nm)” value in series [2] is 440.
Take `CCCCOc1ccc2ccc(OCCCC)c([S+](C)C)c2c1.O=S(=O)([N-]S(=O)(=O)C(F)(F)C(F)(F)C(F)(F)C(F)(F)F)C(F)(F)C(F)(F)C(F)(F)C(F)(F)F` [Ex. 2, 1-(2,7-di-n-butoxynaphthyl)dimethylsulfonium di(1,1,2,2,3,3,4,4,4-nonafluorobutanesulfone)imide]: in series [1], the “PGMEA (amount necessary for dissolving the test compound)” value was determined as 100 µL. Besides, the “Molecular extinction coefficient (365 nm)” value in series [2] came to 480.
As to `CCCCOc1ccc2ccc(OCCCC)c([S+](C(C)C)C(C)C)c2c1.O=S(=O)([N-]S(=O)(=O)C(F)(F)F)C(F)(F)F` [Ex. 12, 1-(2,7-di-n-butoxynaphthyl)diisopropyl sulfonium di(1,1,1-trifluoromethanesulfone)imide], the “PGMEA (amount necessary for dissolving the test compound)” value in series [1] worked out at 100 µL. Also, in series [2], the “Molecular extinction coefficient (365 nm)” value is listed as 880.
For `CCCCOc1ccc([S+](CCCC)CCCC)c2c(OCCCC)cccc12.O=S(=O)([N-]S(=O)(=O)C(F)(F)F)C(F)(F)F` [Ex. 7, 1-(4,8-di-n-butoxynaphthyl)di-n-butylsulfonium di(1,1,1-trifluoromethanesulfone)imide], in that order: 100 µL and 570.
For `CCCCOc1cc(OCCCC)c2ccccc2c1[S+](CCCC)CCCC.O=S(=O)([N-]S(=O)(=O)C(F)(F)C(F)(F)C(F)(F)C(F)(F)F)C(F)(F)C(F)(F)C(F)(F)C(F)(F)F` [Ex. 5, 1-(2,4-di-n-butoxynaphthyl)di-n-butylsulfonium di(1,1,2,2,3,3,4,4,4-nonafluorobutanesulfone)imide], the “PGMEA (amount necessary for dissolving the test compound)” value in series [1] stood at 100 µL. In addition, the “Molecular extinction coefficient (365 nm)” value in series [2] was determined as 100.
As for `CCCCOc1ccc2ccc(OCCCC)c([S+](CCCC)CCCC)c2c1.O=S1(=O)[N-]S(=O)(=O)C(F)(F)C(F)(F)C1(F)F` [Ex. 4, 1-(2,7-di-n-butoxynaphthyl)di-n-butylsulfonium 1,1,2,2,3,3-hexafluorotrimethylene sulfone imide], the “PGMEA (amount necessary for dissolving the test compound)” value in series [1] was 200 µL. The “Molecular extinction coefficient (365 nm)” value in series [2] came to 700.
With `COc1ccc2ccc(OC)c([S+](c3ccccc3)c3ccccc3)c2c1.O=S1(=O)[N-]S(=O)(=O)C(F)(F)C(F)(F)C1(F)F` [C. Ex. 2, 1-(2,7-dimethoxynaphthyl)diphenylsulfonium 1,1,2,2,3,3-hexafluorotrimethylene sulfone imide, reference compound], in series [1], the “PGMEA (amount necessary for dissolving the test compound)” value worked out at 1400 µL. Besides, the “Molecular extinction coefficient (365 nm)” value in series [2] turned out to be 2010.
